Reference: the supplement of paper PMC11208160

Assay: recombinant barcode read abundance after kanamycin selection (control-corrected) (log10(CPM+1)); higher = more efficient recombination; sequences stand for … in AGTGCAGAGAAAATCGGCCAGTTTTCTCTGCCTGCAGTCCGCATGCCGT…AGATTTATGCAGCGGACTGCCTTTCTCCCAAAGTGATAAACCGGACAGTATCATGGACCGGTTTTCCCGGTAATCCGTATTTGCAAGGTTGGTTTCACT; site = the 11-nt target
Procedure, shortened: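 Oligos holding a promoter, target, barcode and the J23119-driven first 104 bases of the bridge RNA were Gibson-cloned into a vector that supplied the other 73 bp plus a T7-inducible recombinase. This library was co-electroporated with a donor plasmid into E. coli. Two replicates went on chloramphenicol/ampicillin LB agar (control) and two on chloramphenicol/ampicillin/kanamycin with 0.1 mM IPTG. Recombination efficiency is read from averaged, control-corrected barcode counts per million at recombinant junctions, reported as log10(CPM+1).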
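Note: IS621 recombinase and bridge RNA in Escherichia coli cells.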

Sequence	recombinant barcode read abundance (log10)
TGCTTACCTTGGGTTCTAACCTGTTGCCT (site AGCTTACCTAG)	0.0889
TGCTTACCTTGGGTTCTAACCTGTTGCCT (site CGCTTACCTAG)	0.332
TGCTTACCTTGGGTTCTAACCTGTTGCCT (site GGCTTACCTAG)	0.185
TGCTTACCTTGGGTTCTAACCTGTTGCCT (site TGCTTACCTAG)	0.282
TGGAAGTCTTGGGTTCTAACCTGTTGCTT (site TGAAAGCCTAA)	0
TGGAAGTCTTGGGTTCTAACCTGTTGCTT (site TGGAAGTCTAA)	0.418
TGGAATTCTTGGGTTCTAACCTGTTGCTT (site TGGAATTCTAA)	0.0863
TGGAATTCTTGGGTTCTAACCTGTTGCTT (site TGGACTTCTAA)	0.0255
TGGACCACTTGGGTTCTAACCTGTTGCCT (site TGGAACACTAG)	0.0728
TGGACCACTTGGGTTCTAACCTGTTGCCT (site TGGACCACTAG)	0.765
TGGACCACTTGGGTTCTAACCTGTTGCCT (site TGGAGCACTAG)	0.0755
TGGACCACTTGGGTTCTAACCTGTTGCCT (site TGGATCACTAG)	0.0342
TGGACTACTTGGGTTCTAACCTGTTGCTC (site CTACAACCTCT)	0.209
TGGACTACTTGGGTTCTAACCTGTTGCTC (site TGGACTACTGA)	0.195
TGGACTTCTTGGGTTCTAACCTGTTGCTG (site TGGACTTCTCA)	0.0836
TGGACTTCTTGGGTTCTAACCTGTTGCTG (site TGGACTTCTGA)	0.215
TGGAGCCCTTGGGTTCTAACCTGTTGCAG (site TGGAGCCCTAT)	0.13
TGGAGCCCTTGGGTTCTAACCTGTTGCAG (site TGGAGCCCTCT)	0.484
TGGAGCCCTTGGGTTCTAACCTGTTGCAG (site TGGAGCCCTGT)	0.336
TGGAGCCCTTGGGTTCTAACCTGTTGCAG (site TGGAGCCCTTT)	0.0206
TGGAGTACTTGGGTTCTAACCTGTTGCCT (site TGGAGTACTAG)	0.874
TGGAGTACTTGGGTTCTAACCTGTTGCCT (site TGGCGTACTAG)	0.0846

Sequence	recombinant barcode read abundance (log10)
TGGAGTACTTGGGTTCTAACCTGTTGCCT (site TGGGGTACTAG)	0.146
TGGAGTACTTGGGTTCTAACCTGTTGCCT (site TGGTGTACTAG)	0
TGGAGTCCTTGGGTTCTAACCTGTTGCCT (site TGGAGTCCTAG)	1.11
TGGAGTCCTTGGGTTCTAACCTGTTGCCT (site TGGCGTCCTAG)	0.0977
TGGAGTCCTTGGGTTCTAACCTGTTGCCT (site TGGGGTCCTAG)	0.548
TGGAGTCCTTGGGTTCTAACCTGTTGCCT (site TGGTGTCCTAG)	0.0821
TGGATGGCTTGGGTTCTAACCTGTTGCCT (site GGGATGGCTAG)	0.149
TGGATGGCTTGGGTTCTAACCTGTTGCCT (site TGGATGGCTAG)	0.17
TGGCAGGCTTGGGTTCTAACCTGTTGCCT (site TGGCAGACTAG)	0.0119
TGGCAGGCTTGGGTTCTAACCTGTTGCCT (site TGGCAGCCTAG)	0.00869
TGGCAGGCTTGGGTTCTAACCTGTTGCCT (site TGGCAGGCTAG)	0.64
TGGCAGGCTTGGGTTCTAACCTGTTGCCT (site TGGCAGTCTAG)	0.0352
TGGCAGTCTTGGGTTCTAACCTGTTGCCT (site TGGCAGACTAG)	0.207
TGGCAGTCTTGGGTTCTAACCTGTTGCCT (site TGGCAGCCTAG)	0.0447
TGGCAGTCTTGGGTTCTAACCTGTTGCCT (site TGGCAGGCTAG)	0.272
TGGCAGTCTTGGGTTCTAACCTGTTGCCT (site TGGCAGTCTAG)	0.413
TGGCATCCTTGGGTTCTAACCTGTTGCGT (site AACAGGGCTCG)	0.0723
TGGCATCCTTGGGTTCTAACCTGTTGCGT (site TGGCATCCTAC)	2.53
TGGCCACCTTGGGTTCTAACCTGTTGCCT (site CGGCCACCTAG)	0.115
TGGCCACCTTGGGTTCTAACCTGTTGCCT (site TGGCCACCTAG)	1.6
TGGCCCTCTTGGGTTCTAACCTGTTGCTT (site TGGCCCTCTAA)	1.63
TGGCCCTCTTGGGTTCTAACCTGTTGCTT (site TGGCCCTCTCA)	0.293

Sequence	recombinant barcode read abundance (log10)
TGGCCCTCTTGGGTTCTAACCTGTTGCTT (site TGGCCCTCTGA)	0.52
TGGCCCTCTTGGGTTCTAACCTGTTGCTT (site TGGCCCTCTTA)	0.056
TGGCCGACTTGGGTTCTAACCTGTTGCAC (site TCGCAGACTGT)	0.0415
TGGCCGACTTGGGTTCTAACCTGTTGCAC (site TGGCCGACTGT)	1.65
TGGCCTGCTTGGGTTCTAACCTGTTGCCT (site TGGCCTGCTAG)	0.868
TGGCCTGCTTGGGTTCTAACCTGTTGCCT (site TGGCGAGCTAG)	0.176
TGGCTAGCTTGGGTTCTAACCTGTTGCAC (site CATTCGCCTAC)	0.0401
TGGCTAGCTTGGGTTCTAACCTGTTGCAC (site TGGCTAGCTGT)	1.77
TGGGACACTTGGGTTCTAACCTGTTGCCG (site AGGGACTCTCG)	0.403
TGGGACACTTGGGTTCTAACCTGTTGCCG (site TGGGACACTCG)	2.48
TGGGTCACTTGGGTTCTAACCTGTTGCTA (site GTTTAATCTAT)	0.0621
TGGGTCACTTGGGTTCTAACCTGTTGCTA (site TGGGTCACTTA)	2.07
TGGGTCCCTTGGGTTCTAACCTGTTGCGA (site AAATGTACTAG)	0.252
TGGGTCCCTTGGGTTCTAACCTGTTGCGA (site TGGGTCCCTTC)	3
TGGTATCCTTGGGTTCTAACCTGTTGCCT (site TGGTATACTAG)	0.15
TGGTATCCTTGGGTTCTAACCTGTTGCCT (site TGGTATCCTAG)	0.954
TGGTATCCTTGGGTTCTAACCTGTTGCCT (site TGGTATGCTAG)	0.396
TGGTATCCTTGGGTTCTAACCTGTTGCCT (site TGGTATTCTAG)	0.358
TGGTCGGCTTGGGTTCTAACCTGTTGCAC (site TAGTCAGCTGT)	0.0913
TGGTCGGCTTGGGTTCTAACCTGTTGCAC (site TGGTCGGCTGT)	0.385
TGGTGCGCTTGGGTTCTAACCTGTTGCCT (site TGGTACGCTAG)	0.33
TGGTGCGCTTGGGTTCTAACCTGTTGCCT (site TGGTCCGCTAG)	0.324
